Experimental findings from US20150051246A1 (priority 2013, published 2015) are described below.

The format of data set [1] is in vivo, human. The conditions noted are these: human, in vivo. The text has this:
An interim analysis has been performed based on the data of 9 subjects of the Impaired Elderly group and 4 subjects of the Healthy Elderly group. For this purpose, cognitive battery test scores (VLT, SMT, Stroop task and BL-VAS) and concentrations of roflumilast and roflumilast-N-oxide in plasma have been analysed and summarized by dose over each scheduled sampling time using descriptive statistics.

The next data set deals with male Wistar rats. In words: Object recognition task (ORT), scopolamine induced memory deficit. It counts as in vivo. The method, then:
Memory acquisition processes are investigated using the object recognition test (ORT).
Twenty four 3-4 month old male Wistar rats (Charles River, Sulzfeld, Germany) were used for the study. All animals were housed individually in standard green line Tecniplast IVC cages on stardust bedding. The animals were housed on a reversed 12/12 h light/dark cycle (lights on from 07:00 pm to 07:00 am) and had free access to food and water. The rats were housed and tested in the same room. A radio, playing softly, provided background noise in the room. All testing was performed between 09:00 am and 06:00 pm.
Drugs were prepared daily, except as indicated otherwise. Roflumilast (Takeda, Konstanz, Germany, MW 403.21) was dissolved in 98% methylcellulose solution (0.5% methylcellulose) and 2% Tween 80. Roflumilast in doses of 0 (vehicle), 0.0001, 0.0003, 0.001, 0.003, 0.01 and 0.03 mg/kg was administered intraperitonally (ip, injection volume 1 ml/kg). […] All compounds were administered 30 min before T1.
The testing order of conditions was determined randomly. The experimenter was blind of testing protocol. A within design was used and all treatment conditions were balanced over rats. The ORT was performed as described elsewhere (Ennaceur and Delaceur, 1988, Behav Brain Res, Vol 31, pp 47-59; Akkerman et al; 2012, Behav Brain Res, Vol 232, pp 335-347). The apparatus consisted of a circular arena, 83 cm in diameter. The back half of the 40 cm high wall was made of grey PVC and the front was made of transparent PVC. Fluorescent red tubes and a light bulb provided a constant illumination of about 20 lux on the floor of the apparatus. The light intensity was equal in the different parts of the apparatus.
Two objects were placed in symmetrical positions at the mid-line between the gray and transparent halves of the arena, about ten centimeters away from wall. Four different sets of objects were available: 1) a standard 1 L brown transparent glass bottle (diameter 10 cm, height 22 cm) filled with water, 2) a metal cube (10.0×5.0×7.5 cm) with two holes (diameter 1.9 cm), 3) a cone consisting of a gray PVC base (maximal diameter 18 cm) with a collar on top made of brass (total height 16 cm), and 4) an aluminum cube with a tapering top (13.0×8.0×8.0 cm). Objects were presented to the animals in a balanced manner to avoid object or place biases. Rats were unable to displace the objects.
A test session comprised two trials, each with durations of 3 min. During the learning trial (T1) the apparatus contains two identical objects (object a1 and a2). Rats were always introduced into the apparatus with their nose towards the transparent wall segment (i.e. facing outwards to the front of the arena). Subsequently, rats were put back in its home cage for a 1 h interval. After the retention interval, rats were put back into the arena for the […] (T2). In T2, the two objects from T1 were replaced by one identical copy (a3) and a different novel object (b). The times spent in exploring each object during T1 and T2 were recorded manually on a personal computer.
Exploration was defined in the following manner: directing the nose to the object at a distance of no more than 2 cm and/or touching the object with the nose. Sitting on the object was not considered as exploratory behavior. In order to avoid the presence of olfactory cues, the objects were thoroughly cleaned with a 70% ethanol solution before each trial.
Prior to compound testing, the animals were handled for 5 min on 2 consecutive days and allowed to explore the ORT arena, also for 5 min. Subsequently, the animals were accustomed to the complete ORT testing procedure without receiving any injection.
The readout parameters of the object recognition task are the times that rats spent on exploring each object during T1 and T2. The exploration time (in seconds) of each object during T1 are presented as “a1” and “a2”.

As to `O=C(Nc1c(Cl)cncc1Cl)c1ccc(OC(F)F)c(OCC2CC2)c1` [roflumilast, N-(3,5-dichloropyridin-4-yl)-3-cyclopropylmethoxy-4-difluoromethoxybenzamide], in data set [1], the exposure entry is on record as “consistent with those previously reported”. Further, the “effect on memory performance (in words)” value was “no effect on memory performance” in the data set with male Wistar rats (0.0001 mg/kg ip, scopolamine deficit); “intermediate memory improvement” in the data set with male Wistar rats (0.0003 mg/kg and 0.001 mg/kg, scopolamine deficit). The “effect on memory function (in words)” value in the data set on male Wistar rats (doses of 0.003 mg/kg and higher, scopolamine deficit) was “fully restore memory function”; with male Wistar rats (single ip dose 0.003 mg/kg, scopolamine deficit) it was “fully restore spatial memory function”; with male Wistar rats (single ip doses 0.01, 0.03, 0.001 and 0.0003 mg/kg), “increasingly less efficacy”. The d2 with male Wistar rats (rat, in vivo) worked out at 0.34; with male Wistar rats (roflumilast 0.0001 mg/kg ip + scopolamine 0.1 mg/kg, 1 h retention) it was 0.05; in the data set with male Wistar rats (roflumilast 0.0003 mg/kg ip + scopolamine 0.1 mg/kg, 1 h retention) it was 0.16; in the data set on male Wistar rats (roflumilast 0.001 mg/kg ip + scopolamine 0.1 mg/kg, 1 h retention) it was 0.27; in the data set with male Wistar rats (roflumilast 0.003 mg/kg ip + scopolamine 0.1 mg/kg, 1 h retention), 0.43; with male Wistar rats (roflumilast 0.03 mg/kg ip + scopolamine 0.1 mg/kg, 1 h retention), 0.30. For the same compound, the d2 with male Wistar rats (scopolamine 0.1 mg/kg + roflumilast 0.0001 mg/kg ip, rof + dpz study) amounted to 0.04.
